The record followed here is PMC5993337, “De novo biosynthesis of sterols and fatty acids in the Trypanosoma brucei procyclic form: Carbon source preferences and metabolic flux redistributions” (PLoS Pathogens, 2018).

This assay addresses T1, IVDH (isovaleryl-CoA dehydrogenase), his-tagged recombinant T. brucei IVDH (Trypanosoma brucei, UniProt Q387A0).
T1 construct: gene Tb11.55.0026; lacks N-terminal 13 residues (gene positions 41 to 1234 bp), 6 His codons at 3' end, pET28, E. coli BL21(DE3) with GroEL-ES
T1 sequence (Q387A0 14-411): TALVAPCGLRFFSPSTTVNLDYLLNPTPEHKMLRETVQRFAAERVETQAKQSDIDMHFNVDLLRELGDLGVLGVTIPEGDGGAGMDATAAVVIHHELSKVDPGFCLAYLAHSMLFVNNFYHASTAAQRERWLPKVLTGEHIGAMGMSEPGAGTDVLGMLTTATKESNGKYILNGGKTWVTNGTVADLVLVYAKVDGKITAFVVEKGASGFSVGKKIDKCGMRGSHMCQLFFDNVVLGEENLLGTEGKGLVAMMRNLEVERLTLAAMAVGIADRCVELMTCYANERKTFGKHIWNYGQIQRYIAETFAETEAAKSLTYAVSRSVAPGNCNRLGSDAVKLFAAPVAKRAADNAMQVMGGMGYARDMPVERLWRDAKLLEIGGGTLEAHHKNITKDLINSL
Briefly: spectrophotometric dye-reduction assay ([…],6-dichloroindophenol, […] nm). The class given is biochemical. Particulars: isovaleryl-CoA 52.5 uM, phenazine methosulfate 1.5 mM, FAD 10 uM, 100 mM KPi pH 7.0, 25 °C.

Regarding `CC(C)CC(=O)SCCNC(=O)CCNC(=O)[C@H](O)C(C)(C)COP(=O)(O)OP(=O)(O)OC[C@H]1O[C@@H](n2cnc3c(N)ncnc32)[C@H](O)[C@@H]1OP(=O)(O)O` [isovaleryl-CoA], the “spectrophotometric dye-reduction assay (2,6-dichloroindophenol, 600 nm)” value is reported as “specific activity of the his-tagged recombinant T. brucei IVDH purified to homogeneity for its substrate”.
